Laboratory results taken from patent US20050107386A1, “Methods of treating diseases and disorders by targeting multiple kinases” (priority 2003, published 2005).

System: HCT-116 cells
Assay: SCID mouse/HCT-116 xenograft model
Details: for % Tumor Growth Inhibition: day 28; for TGD (500 mm^3): days to reach 500 mm^3; for TGD (1000 mm^3): days to reach 1000 mm^3

SMILES: CCc1c2c(nc3ccc(OC(=O)N4CCC(N5CCCCC5)CC4)cc13)-c1cc3c(c(=O)n1C2)COC(=O)[C@]3(O)CC.Cl [Camptosar, reference compound]
- TGD (days to reach 1000 mm^3) (Table 3, i.p. 25 mg/kg q4d): >12 days
- % Tumor Growth Inhibition (Table 3, i.p. 25 mg/kg q4d): 95.4%
- % Tumor Growth Inhibition (Table 5, i.p. 2.5 mg/kg q4d): 66%
- TGD (500 mm^3) (Table 5, i.p. 2.5 mg/kg q4d): >6 days
- TGD (1000 mm^3) (Table 5, i.p. 2.5 mg/kg q4d): >10 days
- % Tumor Growth Inhibition (Table 5, i.p. 10 mg/kg q4d): 90%
- TGD (500 mm^3) (Table 5, i.p. 10 mg/kg q4d): >13 days
- TGD (1000 mm^3) (Table 5, i.p. 10 mg/kg q4d): >10 days
